What was measured:
LSD1 = target: T1, LSD1 (Homo sapiens, UniProt O60341); test: Biochemical assay for LSD-1 activity (luminescence, H3K4 dimethylated peptide substrate); conditions: average of two or more tests; 30 min preincubation of enzyme and compound; read-out: LSD1 PIC50 MEAN (converted)
T1 construct: made in house
Procedure: Biochemical Assay for LSD-1 Activity
The LSD-1 luminescence assay is performed in a buffer containing 25 mM Tris, pH 7.5, 50 mM potassium chloride, 0.02% heat-denatured BSA, 2 mM CHAPS and milliQ ultrapure water. […] The enzyme and test compound are allowed to incubate together for 30 minutes at room temperature. Two microliters of the substrate mix are then added to each well of the plate to initiate the reaction. The plates are covered, protected from light and allowed to incubate for two hours at room temperature. Then, 4 uL of HyPerBlu peroxide detection luminescence reagent (Lumigen/Beckman Coulter, cat# HPB-00005) is added to each well to quench the demethylase reaction and generate the peroxide-dependent luminescence signal. The plates are then incubated for 15-30 minutes in the dark at room temperature prior to being read for Luminescence using a Perkin Elmer Viewlux plate reader. Percent inhibition is calculated based on no compound and no enzyme controls, and inhibition curves are then plotted to determine PIC50 values.

MAO-B = target: T2, MAO-B (Homo sapiens, UniProt P27338); test: Biochemical assay for MAO-B activity (FLINT, benzylamine/amplex red); conditions: average of two or more tests; 30 min preincubation of enzyme and compound; read-out: MAOB PIC50 MEAN (converted)
T2 construct: purchased Gentest-BD Biosciences 456284
T2 sequence (P27338 1-520): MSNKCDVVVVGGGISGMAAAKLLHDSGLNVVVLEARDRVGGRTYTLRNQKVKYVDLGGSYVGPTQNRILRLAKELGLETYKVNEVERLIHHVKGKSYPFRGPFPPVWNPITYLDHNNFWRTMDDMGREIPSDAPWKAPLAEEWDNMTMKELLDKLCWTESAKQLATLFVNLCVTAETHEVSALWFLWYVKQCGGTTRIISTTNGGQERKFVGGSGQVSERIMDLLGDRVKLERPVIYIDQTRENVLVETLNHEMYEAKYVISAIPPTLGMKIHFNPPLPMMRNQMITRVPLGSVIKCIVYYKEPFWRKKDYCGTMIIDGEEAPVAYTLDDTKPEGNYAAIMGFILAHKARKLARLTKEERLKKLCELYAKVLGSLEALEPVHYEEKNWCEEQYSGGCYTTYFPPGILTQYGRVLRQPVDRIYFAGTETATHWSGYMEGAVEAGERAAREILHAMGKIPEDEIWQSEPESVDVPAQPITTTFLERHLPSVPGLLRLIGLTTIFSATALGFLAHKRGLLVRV
Procedure: Biochemical Assay for MAO-B Activity
The MAO-B FLINT assay is performed in a buffer containing 50 mM potassium phospate, pH 7.4, in milliQ ultrapure water. […] The enzyme and test compound are allowed to incubate together for 30 minutes at room temperature. Five microliters of the substrate mix are then added to each well of the plate to initiate the reaction. The plates are covered, protected from light and allowed to incubate for one hour at room temperature. […] Percent inhibition is calculated based on no compound and no enzyme controls, and inhibition curves are then plotted to determine PIC50 values.

| Structure (SMILES) | IC50 (LSD1) | IC50 (MAO-B) |
| --- | --- | --- |
| CN(CCC1CCNCC1)[C@@H]1C[C@H]1c1ccccc1 (relative stereo) [Example 77, trans-N-Methyl-2-phenyl-N-(2-(piperidin-4-yl)ethyl)cyclopropanamine] | 0.2 µM | 31.6 µM |
| OB1OCc2c(CN3CCC(CN[C@@H]4C[C@H]4c4ccccc4)CC3)cccc21 (relative stereo) [Example 55, 4-((4-(((trans-2-Phenylcyclopropyl)amino)methyl)piperidin-1-yl)methyl)benzo[c][1,2]oxaborol-1(3H)-ol] | 0.0251 µM | 7.94 µM |
| CC(=O)N(CC1CCNCC1)[C@@H]1C[C@H]1c1ccccc1 (relative stereo) [Example 17, N-(trans-2-Phenylcyclopropyl)-N-(piperidin-4-ylmethyl)acetamide] | 20 µM | 63.1 µM |
| O=C(O)CCN1CCC(CN[C@@H]2C[C@H]2c2ccccc2)CC1 [Example 71, 3-(4-((((1R,2S)-2-Phenylcyclopropyl)amino)methyl)piperidin-1-yl)propanoic acid] | 0.1 µM | 7.94 µM |
| O=C(O)c1ccc(CN2CC[C@H](CN[C@@H]3C[C@H]3c3ccccc3)C2)cc1 [Example 28a, 4-{[(3R)-3-({[(1R,2S)-2-Phenylcyclopropyl]amino}methyl)-1-pyrrolidinyl]methyl}benzoic acid] | 0.158 µM | 31.6 µM |
| O=C(Nc1ccccc1)N1CCC(CN[C@@H]2C[C@H]2c2ccccc2)CC1 (relative stereo) [Example 12, N-Phenyl-4-(((trans-2-phenylcyclopropyl)amino)methyl)piperidine-1-carboxamide] | 0.0794 µM | 2 µM |
| CC(=O)N1CCC(CN[C@@H]2C[C@H]2c2ccccc2)CC1 (relative stereo) [Example 15, 1-(4-(((trans-2-Phenylcyclopropyl)amino)methyl)piperidin-1-yl)ethanone] | 0.316 µM | 15.8 µM |
| CC(C)(C)OC(=O)N1CCCC(CN[C@H]2CC2c2ccccc2)CC1 (stereo in doubt) [Example 21, 1,1-Dimethylethyl 4-({[trans-2-phenylcyclopropyl]amino}methyl)hexahydro-1H-azepine-1-carboxylate] | 2 µM | 15.8 µM |

Reference: patent US9795597B2, “Cyclopropylamines as LSD1 inhibitors” (GlaxoSmithKline Intellectual Property (No.2) Limited, priority 2011, dated 2017)
